Structures are written as SMILES. pKd: −log10 of the molar value. Starred links: 1 amine or outer side, 2 acyl side, 3 side chain; linkers in the order of their positions; H or OH if unused. Positions of bridges follow the written chain, without caps; N, C: chain ends. Non-standard residues stand in square brackets, D forms with d. Residues, ends and D or L forms follow the SMILES beside them. TATB = O=C(C[*:1])N1CN(C(=O)C[*:2])CN(C(=O)C[*:3])C1; Hyp = O=C(O)[C@@H]1C[C@@H](O)CN1; Tle = CC(C)(C)[C@H](N)C(=O)O

Chain of Human TfR1 (P02786 89-760): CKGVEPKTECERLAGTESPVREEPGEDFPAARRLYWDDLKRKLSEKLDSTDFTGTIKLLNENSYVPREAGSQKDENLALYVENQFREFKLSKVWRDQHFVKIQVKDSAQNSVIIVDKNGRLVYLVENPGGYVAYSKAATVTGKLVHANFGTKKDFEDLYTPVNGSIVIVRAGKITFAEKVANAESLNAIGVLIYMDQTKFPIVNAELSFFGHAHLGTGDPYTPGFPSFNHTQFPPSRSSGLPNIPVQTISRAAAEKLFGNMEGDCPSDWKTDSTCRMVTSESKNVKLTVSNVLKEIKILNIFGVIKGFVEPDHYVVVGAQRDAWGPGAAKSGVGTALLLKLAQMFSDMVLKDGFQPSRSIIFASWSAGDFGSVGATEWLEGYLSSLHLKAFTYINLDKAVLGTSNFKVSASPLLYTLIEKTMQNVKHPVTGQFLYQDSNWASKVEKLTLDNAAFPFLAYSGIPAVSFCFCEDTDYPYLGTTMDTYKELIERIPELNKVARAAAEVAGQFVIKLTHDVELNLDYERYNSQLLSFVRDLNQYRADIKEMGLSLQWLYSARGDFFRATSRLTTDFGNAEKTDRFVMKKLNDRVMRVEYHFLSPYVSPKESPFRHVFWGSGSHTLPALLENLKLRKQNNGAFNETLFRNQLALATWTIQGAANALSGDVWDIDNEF

This assay has as its target Human TfR1 (Homo sapiens, UniProt P02786). The assay is described as follows: biochemical.
Experimental: Recombinant human and cynomolgus TfR1 were received from Bicycle as Hiss-tagged TfR1 (a.a. 89-760) (ACRO Biosystems, CD1-H5243 and TFR-C524a).
For analysis of TfR1 peptide binding, a Biacore T200 or S200 instrument was used utilising a capture/coupling approach with a Cytiva NTA chip at 25° C. with 25 mM HEPES, 0.1M NaCl, 0.05% Tween 20 pH 7.4 as the running buffer. Immobilisation was carried out as follows. The chip was pre-equilibrated with an injection of 500 mM EDTA (pH 8), before activation with 5 mM NiSO4. The surface was then activated using standard amine-coupling chemistry. Briefly, the carboxymethyl dextran surface was activated with a 1:1 ratio of 0.4 M 1-ethyl-3-(3-dimethylaminopropyl) carbodiimide hydrochloride (EDC)/0.1 M N-hydroxy succinimide (NHS). The TfR1 protein (human or cynomolgus) was then captured onto the activated surface after dilution into running buffer to 200 nM and 250 nM respectively. Residual activated groups were blocked with a 7 min injection of 1 M ethanolamine (pH 8.5):HBS-N(1:1). Reference surfaces were activated and blocked as above with no TfR1 protein capture. Capture levels were in the range of 1,500-5,000 RU dependent upon the individual study Buffer was changed to 25 mM HEPES, 0.1M NaCl, 0.05% Tween 20 pH 7.4 1% DMSO.
A dilution series of test peptides was prepared in this buffer with a top peptide concentration of 5 μM and 6 further 2-fold dilutions. The SPR analysis was run at 25° C. at a flow rate of 30 μl/min with 160 seconds association and 700-800 seconds dissociation. Data were corrected for DMSO excluded volume effects. All data were double-referenced for blank injections and reference surface using standard processing procedures and data processing and kinetic fitting were performed using Scrubber software, version 2.0c (BioLogic Software). Data were fitted using simple 1:1 binding model allowing for mass transport effects where appropriate.
On to `CC(=O)N[C@H]1CSCC(=O)N2CN3CN(C2)C(=O)CSC[C@@H](C(=O)N[C@@H](CCC(=O)O)C(=O)N2CCC[C@H]2C(=O)N[C@@H](Cc2ccc(O)cc2)C(N)=O)NC(=O)[C@H](Cc2ccc(O)cc2)NC(=O)[C@H](CO)NC(=O)[C@H](C(C)(C)C)NC(=O)[C@H](CSCC3=O)NC(=O)CNC(=O)[C@H](CC(C)C)NC(=O)[C@H](Cc2ccc(O)cc2)NC(=O)[C@H](C)NC(=O)[C@H](CC(=O)O)NC(=O)[C@@H]2C[C@@H](O)CN2C(=O)[C@@H]2CCCN2C1=O` [BCY23207, CP[HyP]DAYLGC[tBuGly]SYCEPY], for which the pKd (in general, −log10 of the Kd, conventionally taken in molar units) is 8.11. Then `CC(=O)N[C@H]1CSCC(=O)N2CN3CN(C2)C(=O)CSC[C@@H](C(=O)N[C@@H](CCC(=O)O)C(=O)N2CCC[C@H]2C(=O)N[C@@H](Cc2c[nH]c4ccccc24)C(N)=O)NC(=O)[C@H](Cc2ccc(O)cc2)NC(=O)[C@H](CO)NC(=O)[C@H](C(C)(C)C)NC(=O)[C@H](CSCC3=O)NC(=O)CNC(=O)[C@H](CCC(N)=O)NC(=O)[C@H](Cc2ccc(O)cc2)NC(=O)[C@H](C)NC(=O)[C@H](CC(=O)O)NC(=O)[C@@H]2C[C@@H](O)CN2C(=O)[C@@H]2CCCN2C1=O` [BCY23223, CP[HyP]DAYQGC[tBuGly]SYCEPW] (Ac-CP[Hyp]DAYQGC[Tle]SYCEPW-NH2; linker 1-9-13 via TATB), with 7.30; and `CC(=O)N[C@H]1CSCC(=O)N2CN3CN(C2)C(=O)CSC[C@@H](C(=O)N[C@@H](CCC(=O)O)C(=O)N2CCC[C@H]2C(=O)N[C@@H](CCc2ccc(O)cc2)C(N)=O)NC(=O)[C@H](Cc2ccc(O)cc2)NC(=O)[C@H](CO)NC(=O)[C@H](C(C)(C)C)NC(=O)[C@H](CSCC3=O)NC(=O)CNC(=O)[C@H](CC(C)C)NC(=O)[C@H](Cc2ccc(O)cc2)NC(=O)[C@H](C)NC(=O)[C@H](CC(=O)O)NC(=O)[C@@H]2C[C@@H](O)CN2C(=O)[C@@H]2CCCN2C1=O` [BCY23211, CP[HyP]DAYLGC[tBuGly]SYCEP[hTyr]], with 8.11; and `CC(=O)N[C@H]1CSCC(=O)N2CN3CN(C2)C(=O)CSC[C@@H](C(=O)N[C@@H](CCC(=O)O)C(=O)N2CCC[C@H]2C(=O)N[C@@H](Cc2c[nH]c4ccccc24)C(N)=O)NC(=O)[C@H](Cc2ccc(O)cc2)NC(=O)[C@H](CO)NC(=O)[C@H](C(C)(C)C)NC(=O)[C@H](CSCC3=O)NC(=O)CNC(=O)[C@H](CC(C)C)NC(=O)[C@H](Cc2ccc(O)cc2)NC(=O)[C@H](C)NC(=O)[C@H](CC(=O)O)NC(=O)[C@@H]2C[C@@H](O)CN2C(=O)[C@@H]2C[C@@H](O)CN2C1=O` [BCY23180, C[HyP][HyP]DAYLGC[tBuGly]SYCEPW], with 7.30.

For the origin of these results see patent publication US20250276073A1, “BICYCLIC PEPTIDE LIGANDS SPECIFIC FOR TRANSFERRIN RECEPTOR 1 (TfR1)” (BicycleTx Limited, priority 2022, published 2025).
